# Organism: Rattus norvegicus
# Assay: DrugMatrix - Regimen: Daily Repeat
# Assay type: toxicity, organism-based, Sprague-Dawley
# Set-up: regimen Daily Repeat, gender Male, age 6-8 weeks
# Details: in vivo, po, route oral GAVAGE, […]; for ABSOLUTE BASOPHIL / ABSOLUTE EOSINOPHIL / ABSOLUTE LYMPHOCYTE / ABSOLUTE MONOCYTE / ABSOLUTE SEGMENTED NEUTROPHIL / BASOPHIL / EOSINOPHIL / ERYTHROCYTE COUNT / HEMATOCRIT / HEMOGLOBIN / LEUKOCYTE COUNT / LYMPHOCYTE / MEAN CORPUSCULAR HEMOGLOBIN / MEAN CORPUSCULAR HEMOGLOBIN CONCENTRATION / MEAN CORPUSCULAR VOLUME / MONOCYTE / NEUTROPHIL / NUCLEATED RED BLOOD CELLS / PLATELET COUNT: tissue Blood; for ALANINE AMINOTRANSFERASE / ALBUMIN / ALKALINE PHOSPHATASE / ASPARTATE AMINOTRANSFERASE / BLOOD UREA NITROGEN / CARBON DIOXIDE / CHLORIDE / CHOLESTEROL / CREATINE PHOSPHOKINASE / CREATININE / GLUCOSE / LACTATE DEHYDROGENASE / LIPASE / PHOSPHORUS / POTASSIUM / SODIUM / TOTAL BILIRUBIN / TOTAL PROTEIN / URIC ACID: tissue Plasma
# [1] = 0 mg/kg, 72 h, dose level Control, time 3 day
# [2] = 0 mg/kg, 120 h, dose level Control, time 5 day
# [3] = 47 mg/kg, 72 h, dose level Low, time 3 day
smiles,measurement,setting,value
CC(=O)Nc1nnc(S(N)(=O)=O)s1 [ACETAZOLAMIDE],ABSOLUTE BASOPHIL,[1],0 CELLS/uL
same,ABSOLUTE EOSINOPHIL,[1],41.83 CELLS/uL
same,ABSOLUTE LYMPHOCYTE,[1],8545.5 CELLS/uL
same,ABSOLUTE MONOCYTE,[1],240 CELLS/uL
same,ABSOLUTE SEGMENTED NEUTROPHIL,[1],906 CELLS/uL
same,BASOPHIL,[1],0%
same,EOSINOPHIL,[1],0.33%
same,ERYTHROCYTE COUNT,[1],5.6 x10E6/uL
same,HEMATOCRIT,[1],35.4%
same,HEMOGLOBIN,[1],13.42 G/DL
same,LEUKOCYTE COUNT,[1],9.73 x10E3/uL
same,LYMPHOCYTE,[1],87.83%
same,MEAN CORPUSCULAR HEMOGLOBIN,[1],23.98 pg
same,MEAN CORPUSCULAR HEMOGLOBIN CONCENTRATION,[1],37.92 G/DL
same,MEAN CORPUSCULAR VOLUME,[1],63.3 fL
same,MONOCYTE,[1],2.5%
same,NEUTROPHIL,[1],9.33%
same,NUCLEATED RED BLOOD CELLS,[1],0 /100WBC
same,PLATELET COUNT,[1],1032 x10E3/uL
same,ALANINE AMINOTRANSFERASE,[1],72.83 u/L
same,ALBUMIN,[1],4 G/DL
same,ALKALINE PHOSPHATASE,[1],322.83 u/L
same,ASPARTATE AMINOTRANSFERASE,[1],102.67 u/L
same,BLOOD UREA NITROGEN,[1],12 mg/dL
same,CARBON DIOXIDE,[1],34.33 mmol/L
same,CHLORIDE,[1],97.67 MEQ/L
same,CHOLESTEROL,[1],82.5 mg/dL
same,CREATINE PHOSPHOKINASE,[1],410.33 u/L
same,CREATININE,[1],0.18 mg/dL
same,GLUCOSE,[1],164.5 mg/dL
same,LACTATE DEHYDROGENASE,[1],119.5 u/L
same,LIPASE,[1],11.83 u/L
same,PHOSPHORUS,[1],9.52 mg/dL
same,POTASSIUM,[1],5.56 MEQ/L
same,SODIUM,[1],142.48 MEQ/L
same,TOTAL BILIRUBIN,[1],0.18 mg/dL
same,TOTAL PROTEIN,[1],5.77 G/DL
same,URIC ACID,[1],0.48 mg/dL
same,ABSOLUTE BASOPHIL,[2],0 CELLS/uL
same,ABSOLUTE EOSINOPHIL,[2],0 CELLS/uL
same,ABSOLUTE LYMPHOCYTE,[2],9065 CELLS/uL
same,ABSOLUTE MONOCYTE,[2],341.33 CELLS/uL
same,ABSOLUTE SEGMENTED NEUTROPHIL,[2],527 CELLS/uL
same,BASOPHIL,[2],0%
same,EOSINOPHIL,[2],0%
same,ERYTHROCYTE COUNT,[2],5.25 x10E6/uL
same,HEMATOCRIT,[2],34.08%
same,HEMOGLOBIN,[2],13.5 G/DL
same,LEUKOCYTE COUNT,[2],9.93 x10E3/uL
same,LYMPHOCYTE,[2],91.17%
same,MEAN CORPUSCULAR HEMOGLOBIN,[2],25.7 pg
same,MEAN CORPUSCULAR HEMOGLOBIN CONCENTRATION,[2],39.62 G/DL
same,MEAN CORPUSCULAR VOLUME,[2],64.93 fL
same,MONOCYTE,[2],3.33%
same,NEUTROPHIL,[2],5.5%
same,NUCLEATED RED BLOOD CELLS,[2],0 /100WBC
same,PLATELET COUNT,[2],1077.5 x10E3/uL
same,ALANINE AMINOTRANSFERASE,[2],57.83 u/L
same,ALBUMIN,[2],4.07 G/DL
same,ALKALINE PHOSPHATASE,[2],319.17 u/L
same,ASPARTATE AMINOTRANSFERASE,[2],83.33 u/L
same,BLOOD UREA NITROGEN,[2],13.67 mg/dL
same,CARBON DIOXIDE,[2],30.83 mmol/L
same,CHLORIDE,[2],98.33 MEQ/L
same,CHOLESTEROL,[2],64.83 mg/dL
same,CREATINE PHOSPHOKINASE,[2],263.67 u/L
same,CREATININE,[2],0.2 mg/dL
same,GLUCOSE,[2],182.83 mg/dL
same,LACTATE DEHYDROGENASE,[2],124 u/L
same,LIPASE,[2],10.5 u/L
same,PHOSPHORUS,[2],10 mg/dL
same,POTASSIUM,[2],5.78 MEQ/L
same,SODIUM,[2],142.48 MEQ/L
same,TOTAL BILIRUBIN,[2],0.2 mg/dL
same,TOTAL PROTEIN,[2],6 G/DL
same,URIC ACID,[2],0.7 mg/dL
same,ABSOLUTE BASOPHIL,[3],0 CELLS/uL
same,ABSOLUTE EOSINOPHIL,[3],0 CELLS/uL
same,ABSOLUTE LYMPHOCYTE,[3],9847 CELLS/uL
same,ABSOLUTE MONOCYTE,[3],251.33 CELLS/uL
same,ABSOLUTE SEGMENTED NEUTROPHIL,[3],935 CELLS/uL
same,BASOPHIL,[3],0%
same,EOSINOPHIL,[3],0%
same,ERYTHROCYTE COUNT,[3],5.11 x10E6/uL
same,HEMATOCRIT,[3],32.2%
same,HEMOGLOBIN,[3],12.47 G/DL
same,LEUKOCYTE COUNT,[3],11.03 x10E3/uL
same,LYMPHOCYTE,[3],88.67%
same,MEAN CORPUSCULAR HEMOGLOBIN,[3],24.43 pg
same,MEAN CORPUSCULAR HEMOGLOBIN CONCENTRATION,[3],38.77 G/DL
same,MEAN CORPUSCULAR VOLUME,[3],63 fL
same,MONOCYTE,[3],2.33%
same,NEUTROPHIL,[3],9%
same,NUCLEATED RED BLOOD CELLS,[3],0 /100WBC
same,PLATELET COUNT,[3],1122.33 x10E3/uL
same,ALANINE AMINOTRANSFERASE,[3],67 u/L
same,ALBUMIN,[3],3.77 G/DL
same,ALKALINE PHOSPHATASE,[3],486.33 u/L
same,ASPARTATE AMINOTRANSFERASE,[3],91.33 u/L
same,BLOOD UREA NITROGEN,[3],11.33 mg/dL
same,CARBON DIOXIDE,[3],31 mmol/L
same,CHLORIDE,[3],99 MEQ/L
same,CHOLESTEROL,[3],74 mg/dL
same,CREATINE PHOSPHOKINASE,[3],250 u/L
same,CREATININE,[3],0.31 mg/dL
same,GLUCOSE,[3],173 mg/dL
same,LACTATE DEHYDROGENASE,[3],140.67 u/L
same,LIPASE,[3],13.33 u/L
same,PHOSPHORUS,[3],10.33 mg/dL
same,POTASSIUM,[3],5.3 MEQ/L
same,SODIUM,[3],144.37 MEQ/L
same,TOTAL BILIRUBIN,[3],0.23 mg/dL
same,TOTAL PROTEIN,[3],5.5 G/DL
same,URIC ACID,[3],0.67 mg/dL

# Source: ChEMBL document CHEMBL3885881, “DrugMatrix”
